One series relates to human cancer cells. The settings on record: small panel of human cancer cells; cited from earlier work.
Series [1] is described as follows: Body weight gain in high fat diet induced obesity model of Sprague-Dawley rats. The settings on record: 7 mg/kg oral daily, 8 weeks. It is filed as in vivo. From the text:
(§1) Induction: Selected healthy Sprague-Dawley rats were randomly assigned to control or various treatment groups (n=7). All the animals allocated to the obesity study were made experimentally obese through dietary intervention during the entire eight weeks induction period by feeding high fat diet ad libitum containing Bengal gram 32 g, Wheat floor 15 g, Yeast 1 g, Butter 2 g, Ground nut oil 8 g, Casein 5 g, Vanaspathi 20 g, Vitamin mix 05 g, Milk powder 12 g and Mineral Salt mixture 4.5 g per 100 g of high fat diet.
Treatment: Following 8 weeks of induction phase, the animals were treated orally (using oral feeding gavage) with either of the allocated test substances or vehicle daily for 8 weeks. […]
Body weights: Body weight of individual animal was recorded weekly during the entire duration of the study. Mean body weights for the treatment groups and control group were determined. The body weight gain was calculated at the end of 1st week, 4th week and 8th week after initiation of treatment in comparison to initial body weights. The percentage reduction in weight gain in the treatment groups was then calculated by comparing the weight gain in each treatment with that of control group. […]

For the next series, the system named is adiponectin. In words: Serum adiponectin in high fat diet induced obese rats (ELISA). It is filed as in vivo, Sprague-Dawley rats. The settings on record: 7 mg/kg daily, 8 weeks.
Excerpt: as §1
(§2) Treatment: Following 8 weeks of induction phase, the animals were treated orally (using oral feeding gavage) with either of the allocated test substances or vehicle daily for 8 weeks. The animals of treatment groups were supplemented with 100 mg/kg body weight of LI/PD/044B/03 or 250 mg/kg body weight of LI/PD/044B/03 or 7 mg/kg body weight of sibutramine in 10 mL of 0.5% CMC in water for further 8 weeks. The control group of animals received only the vehicle (10 mL of 0.5% CMC in water) during this period. During the treatment phase, all animals were provided with the standard rodent diet till the end of the study.
Estimation of Biomarker Adiponectin: The serum adiponectin concentration for the control and treatment groups of animals were assessed using double antibody based sandwich rat adiponectin ELISA kit. […]

Series [2] in a line: Serum LDL in high fat diet induced obese rats. It is filed as in vivo, Sprague-Dawley rats. The conditions noted are these: 7 mg/kg, 8 weeks.
Excerpt: as §1, §2
Serum LDL concentration: The serum LDL levels in animals supplemented with different Treatments and control were estimated on Human Biochemistry Analyzer (German) and the results are summarized in FIG. 7B.

For `COc1ccc2c3c(c4cc(OC)c(OC)cc4c2c1)CN1CCCC1C3O` (centres unmarked) [O-Methyltylophorinidine], in the series with human cancer cells, the cytotoxic activity entry is “potent cytotoxic activity”.

On to `CC(C)CC(N(C)C)C1(c2ccc(Cl)cc2)CCC1` (centres unmarked) [sibutramine], for which the “reduction in body weight gain vs control group” value in series [1] is 40%. For the same molecule, in the series with adiponectin, the “improvement in serum adiponectin concentration vs baseline” value was determined as 6.3%. The “serum LDL concentrations” value in series [2] was “significant reduction”.

On to ficustriol, for which the cytotoxic activity entry with human cancer cells is “inactive”.

The values are drawn from patent US8703215B2, “Agents from Ficus hispida for the amelioration of metabolic syndrome and related diseases” (Laila Nutraceuticals, priority 2009, dated 2014).
